Data as given in patent publication US10508104B2, “6-hydroxy-5-(phenyl/heteroarylsulfonyl)pyrimidin-4(1H)-one as APJ agonists” (Bristol-Myers Squibb Company, priority 2016, dated 2019).
Where two headings read alike, the source gives them in different places.

Biological target: human APJ receptor (Homo sapiens (Human), UniProt P35414)
Assay: Intracellular cAMP accumulation assay (APJ hcAMP, HTRF)
Format: cell-based
Settings: read-out: Human APJ cAMP EC50 Potency range
Outline: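 HEK293 cells stably expressing human APJ, 5,000 per well, incubated 30 min at rt with compound, […] and 2 μM forskolin. cAMP measured by HTRF against a cAMP standard curve as inhibition of forskolin-driven production. EC50 from variable-slope sigmoidal fit.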

[1] = HEK293 cells stably expressing human APJ receptor, inhibition of forskolin-mediated cAMP production

human APJ receptor, sequence (P35414 whole entry): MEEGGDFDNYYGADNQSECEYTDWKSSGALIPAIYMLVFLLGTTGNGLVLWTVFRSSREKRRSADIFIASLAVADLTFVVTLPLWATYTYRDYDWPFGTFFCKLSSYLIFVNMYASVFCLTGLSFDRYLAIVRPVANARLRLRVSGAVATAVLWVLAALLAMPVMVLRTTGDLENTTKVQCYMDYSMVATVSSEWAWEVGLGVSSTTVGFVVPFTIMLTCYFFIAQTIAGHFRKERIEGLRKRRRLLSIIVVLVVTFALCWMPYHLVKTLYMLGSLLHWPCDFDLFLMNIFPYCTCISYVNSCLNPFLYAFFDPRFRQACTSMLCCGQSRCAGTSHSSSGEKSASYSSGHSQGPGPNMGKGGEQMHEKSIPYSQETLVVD

| EC50 (human APJ, cAMP accumulation) [nM] | EC50 [1] [nM] | SMILES |
| --- | --- | --- |
| 0.01 to 10 | – | CC[C@@H](c1ccccc1)n1c(C2CCCC2)nc(=O)c(S(=O)(=O)c2ccc(-c3ccc(F)nc3)cc2)c1O [Example 280, 2-cyclopentyl-5-[4-(6-fluoropyridin-3-yl)benzenesulfonyl]-6-hydroxy-1-[(1S)-1-phenylpropyl]-1,4-dihydropyrimidin-4-one] |
| 0.01 to 10 | – | CC[C@@H](c1ccccc1)n1c(C2CCCC2)nc(=O)c(S(=O)(=O)c2ccc(-c3cncc(C)c3)cc2)c1O [Example 281, 2-cyclopentyl-6-hydroxy-5-[4-(5-methylpyridin-3-yl)benzenesulfonyl]-1-[(1S)-1-phenylpropyl]-1,4-dihydropyrimidin-4-one] |
| 0.01 to 10 | – | CC[C@@H](c1ccccc1)n1c(C2CCCC2)nc(=O)c(S(=O)(=O)c2ccc(-c3ccncc3C)cc2)c1O [Example 282, 2-cyclopentyl-6-hydroxy-5-[4-(3-methylpyridin-4-yl)benzenesulfonyl]-1-[(1S)-1-phenylpropyl] 1,4-dihydropyrimidin-4-one] |
| 0.01 to 10 | – | CC[C@@H](c1ccccc1)n1c(C2CCCC2)nc(=O)c(S(=O)(=O)c2ccc(-c3cncc(F)c3)cc2)c1O [Example 283, 2-cyclopentyl-5-[4-(5-fluoropyridin-3-yl)benzenesulfonyl]-6-hydroxy-1-[(1S)-1-phenylpropyl]-1,4-dihydropyrimidin-4-one] |
| 0.01 to 10 | – | CCCCc1nc(=O)c(S(=O)(=O)c2ccc(Br)cc2)c(O)n1[C@@H](CC)c1ccccc1 [Example 284, 5-(4-bromobenzenesulfonyl)-2-butyl-6-hydroxy-1-[(1S)-1-phenylpropyl]-1,4-dihydropyrimidin-4-one] |
| 100 to 300 | – | CCOCc1nc(=O)c(S(=O)(=O)c2ccc(Br)cc2)c(O)n1[C@@H](CC)c1ccccc1 [Example 285, 5-(4-bromobenzenesulfonyl)-2-(ethoxymethyl)-6-hydroxy-1-[(1S)-1-phenylpropyl]-1,4-dihydropyrimidin-4-one] |
| 100 to 300 | – | CC[C@@H](c1ccccc1)n1c(COC(C)C)nc(=O)c(S(=O)(=O)c2ccc(Br)cc2)c1O [Example 286, 5-(4-bromobenzenesulfonyl)-6-hydroxy-1-[(1S)-1-phenylpropyl]-2-[(propan-2-yloxy)methyl]-1,4-dihydropyrimidin-4-one] |
| 0.01 to 10 | – | CCCCc1nc(=O)c(S(=O)(=O)c2ccc(-n3ccccc3=O)cc2)c(O)n1[C@@H](CC)c1ccccc1 [Example 287, 2-butyl-6-hydroxy-5-[4-(2-oxo-1,2-dihydropyridin-1-yl)benzenesulfonyl]-1-[(1S)-1-phenylpropyl]-1,4-dihydropyrimidin-4-one] |

The remaining lines, values behind:

| SMILES | EC50 (human APJ, cAMP accumulation) [nM] | EC50 [1] [nM] |
| --- | --- | --- |
| CCCCc1nc(=O)c(S(=O)(=O)c2ccc(-c3cccnc3C)cc2)c(O)n1[C@@H](CC)c1ccc(C#N)cc1 [Example 266, 4-[(1S)-1-{2-butyl-6-hydroxy-5-[4-(2-methylpyridin-3-yl)benzenesulfonyl]-4-oxo-1,4-dihydropyrimidin-1-yl}propyl]benzonitrile] | 0.01 to 10 | – |
| CCCCc1nc(=O)c(S(=O)(=O)c2ccc(-c3ccc(F)nc3C)cc2)c(O)n1[C@@H](CC)c1ccc(C#N)cc1 [Example 267, 4-[(1S)-1-{2-butyl-5-[4-(6-fluoro-2-methylpyridin-3-yl)benzenesulfonyl]-6-hydroxy-4-oxo-1,4-dihydropyrimidin-1-yl}propyl]benzonitrile] | 0.01 to 10 | – |
| CCCCc1nc(=O)c(S(=O)(=O)c2ccc(-c3ccnc(F)c3C)cc2)c(O)n1[C@@H](CC)c1ccc(C#N)cc1 [Example 268, 4-[(1S)-1-{2-butyl-5-[4-(2-fluoro-3-methylpyridin-4-yl)benzenesulfonyl]-6-hydroxy-4-oxo-1,4-dihydropyrimidin-1-yl}propyl]benzonitrile] | 0.01 to 10 | – |
| COc1cccc(OC)c1-n1c(-c2ccc(F)cc2)nc(=O)c(S(=O)(=O)c2ccc(Br)cc2)c1O [Example 269, 5-((4-Bromophenyl)sulfonyl)-1-(2,6-dimethoxyphenyl)-2-(4-fluorophenyl)-6-hydroxypyrimidin-4(1H)-one] | – | 100 to 300 |
| COc1cccc(OC)c1-n1c(-c2cncc(C)c2)nc(=O)c(S(=O)(=O)c2ccc(Br)cc2)c1O [Example 270, 5-(4-bromobenzenesulfonyl)-1-(2,6-dimethoxyphenyl)-6-hydroxy-2-(5-methylpyridin-3-yl)-1,4-dihydropyrimidin-4-one] | 10 to 100 | – |
| COc1cccc(OC)c1-n1c(-c2ccc(F)cc2)nc(=O)c(S(=O)(=O)c2ccc(-c3cccnc3C)cc2)c1O [Example 271, 1-(2,6-Dimethoxyphenyl)-2-(4-fluorophenyl)-6-hydroxy-5-((4-(2-methylpyridin-3-yl)phenyl)sulfonyl)pyrimidin-4(1H)-one] | – | 0.01 to 10 |
| COc1cccc(OC)c1-n1c(-c2cncc(C)c2)nc(=O)c(S(=O)(=O)c2ccc(-c3cccnc3C)cc2)c1O [Example 272, 1-(2,6-dimethoxyphenyl)-6-hydroxy-2-(5-methylpyridin-3-yl)-5-[4-(2-methylpyridin-3-yl)benzenesulfonyl]-1,4-dihydropyrimidin-4-one] | 0.01 to 10 | – |
| COc1cccc(OC)c1-n1c(-c2ccc(F)cc2)nc(=O)c(S(=O)(=O)c2ccc(-c3ccncc3C)cc2)c1O [Example 273] | 0.01 to 10 | – |
| COc1cccc(OC)c1-n1c(-c2cncc(C)c2)nc(=O)c(S(=O)(=O)c2ccc(-c3ccnc(F)c3C)cc2)c1O [Example 274, 1-(2,6-dimethoxyphenyl)-5-[4-(2-fluoro-3-methylpyridin-4-yl)benzenesulfonyl]-6-hydroxy-2-(5-methylpyridin-3-yl)-1,4-dihydropyrimidin-4-one] | 0.01 to 10 | – |
| COc1cccc(OC)c1-n1c(-c2ccc(F)cc2)nc(=O)c(S(=O)(=O)c2ccc(-n3cc(Cl)ccc3=O)cc2)c1O [Example 275, 5-((4-(5-Chloro-2-oxopyridin-1 (2H)-yl)phenyl)sulfonyl)-1-(2,6-dimethoxyphenyl)-2-(4-fluorophenyl)-6-hydroxypyrimidin-4(1H)-one] | – | 0.01 to 10 |
| COc1cccc(OC)c1-n1c(-c2cncc(C)c2)nc(=O)c(S(=O)(=O)c2ccc(-n3cc(Cl)ccc3=O)cc2)c1O [Example 276, 5-[4-(5-chloro-2-oxo-1,2-dihydropyridin-1-yl)benzenesulfonyl]-1-(2,6-dimethoxyphenyl)-6-hydroxy-2-(5-methylpyridin-3-yl)-1,4-dihydropyrimidin-4-one] | 0.01 to 10 | – |
| COc1cccc(OC)c1-n1c(-c2cncc(C)c2)nc(=O)c(S(=O)(=O)c2ccc(C3CC3)cc2)c1O [Example 277, 5-(4-cyclopropylbenzene-sulfonyl)-1-(2,6-dimethoxyphenyl)-6-hydroxy-2-(5-methylpyridin-3-yl)-1,4-dihydropyrimidin-4-one] | 0.01 to 10 | – |
| COc1cccc(OC)c1-n1c(-c2ccc(F)cc2)nc(=O)c(S(=O)(=O)c2ccc(C3CC3)cc2)c1O [Example 278, 5-((4-Cyclopropylphenyl)sulfonyl)-1-(2,6-dimethoxyphenyl)-2-(4-fluorophenyl)-6-hydroxypyrimidin-4(1H)-one] | – | 10 to 100 |
| CC[C@@H](c1ccccc1)n1c(C2CCCC2)nc(=O)c(S(=O)(=O)c2ccc(Br)cc2)c1O [Example 279, (S)-5-((4-Bromophenyl)sulfonyl)-2-cyclopentyl-6-hydroxy-1-(1-phenylpropyl)pyrimidin-4(1H)-one] | – | 10 to 100 |
